Experimental data taken from patent US6372777B1, “Cyclic AMP-specific phosphodiesterase inhibitors” (ICOS Corporation, priority 1999, dated 2002).
pEC50, pIC50: −log10 of the molar value.

What follows are molecules tested on human peripheral blood lymphocytes (assay: Lipopolysaccharide-stimulated TNFα release from human peripheral blood lymphocytes). Conditions: Homo sapiens, Lymphocyte; LPS-stimulated TNFα release; read-out: PBL/TNFα EC50.
Format: cell-based
Protocol: The compounds of structural formulae (I) and (II) also were tested for an ability to reduce TNFα secretion in human peripheral blood lymphocytes. The ability to reduce TNFα secretion is related to the EC50 values (i.e., the effective concentration of the compound capable of inhibiting 50% of the total TNFα). To assess the ability of a compound to reduce TNFα secretion in human peripheral blood lymphocytes (PBL), the following tests were performed. […] Heparinized blood (approximately 30 mL) drawn from human volunteers was mixed 1:1 with Dulbecco's modified phosphate-buffered saline. This mixture was mixed 1:1 with HISTOPAQUE and centrifuged at 1,500 rpm at room temperature without braking in the swinging bucket of a Beckman model TJ6 centrifuge. Erythrocytes were centrifuged to the bottom of the tubes, and serum remained at the surface of the tubes. A layer containing lymphocytes sedimented between the serum and HISTOPAQUE® layers, and was removed by aspiration to a fresh tube. The cells were quantified and adjusted to 3×10^6 cells/mL and a 100 μL aliquot is placed into the wells of a 96 well plate. Test compounds and RPMI media (Gibco/BRL Life Sciences) are added to each of the wells 15 minutes prior to addition of bacterial LPS ([…]). The mixture was allowed to incubate for 20 hours at 37° C. in a humidified chamber. The cells then were separated by centrifuging at 800 rpm for 5 minutes at room temperature. An aliquot of 80 µL of supernatant was transferred to a new plate or determination of TNFα concentration. TNFα protein in the cell supernatant fluids was measured using a commercially available enzyme-linked immunosorbent assay (ELISA) (CYTOSCREEN® Immunoassay Kit from Biosource International). The cell-based assay provided the following results for various compounds of the present invention. The EC50 values (i.e., effective concentration of the compound capable of inhibiting 50% of the total TNFα ) illustrate the ability of the present compounds to inhibit LPS-stimulated TNFα release from human PBL.

Row | pEC50 | SMILES
1 | 5.82 | CCOC(=O)c1cc(-c2ccccc2)n(-c2cccc(Cl)c2)c1C [Example 3, 1-(3-Chlorophenyl)-2-methyl-5-phenyl-1H-pyrrole-3-carboxylic acid ethyl ester]
2 | 5.00 | CCOC(=O)c1cc(C)n(-c2ccccc2)c1-c1ccccc1 [Example 21, 5-Methyl-1,2-diphenyl-1H-pyrrole-3-carboxylic acid ethyl ester]

The molecules below were run against T1, human recombinant PDE4 (Homo sapiens, UniProt Q07343) (assay: Inhibition of human recombinant PDE4 (IC50)). Conditions: not given.
T1 construct: made in house; host or cells: Saccharomyces cerevisiae BJ2-54 (strain YI23 harboring HDUN2.32, if PDE4B)
Format: biochemical

T1 sequence (Q07343 1-564 isoform Q07343-2): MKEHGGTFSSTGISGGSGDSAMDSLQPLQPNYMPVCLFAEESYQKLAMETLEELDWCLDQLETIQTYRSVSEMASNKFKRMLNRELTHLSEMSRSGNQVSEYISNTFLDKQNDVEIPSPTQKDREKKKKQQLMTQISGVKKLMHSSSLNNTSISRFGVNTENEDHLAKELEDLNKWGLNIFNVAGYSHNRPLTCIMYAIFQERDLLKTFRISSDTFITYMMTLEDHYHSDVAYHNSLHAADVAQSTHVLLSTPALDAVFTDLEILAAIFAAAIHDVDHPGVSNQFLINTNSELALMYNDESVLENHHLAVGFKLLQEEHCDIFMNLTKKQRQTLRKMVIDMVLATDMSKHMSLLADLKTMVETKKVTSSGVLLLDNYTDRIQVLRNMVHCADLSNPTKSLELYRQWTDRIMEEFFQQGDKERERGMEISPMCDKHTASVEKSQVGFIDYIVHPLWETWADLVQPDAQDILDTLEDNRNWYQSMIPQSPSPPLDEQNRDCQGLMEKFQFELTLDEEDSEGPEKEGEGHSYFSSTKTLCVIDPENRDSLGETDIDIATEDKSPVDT

Row | SMILES | pIC50
3 | CCOC(=O)c1cc(-c2ccccc2)n(-c2cccc(N(C)C)c2)c1C [Example 1, 1-(3-Dimethylaminophenyl)-2-methyl-5-phenyl-1H-pyrrole-3-carboxylic acid ethyl ester] | 5.09
4 | CCOC(=O)c1cc(C)n(-c2cccc(Cl)c2)c1-c1ccccc1 [Example 2, 1-(3-Chlorophenyl)-5-methyl-2-phenyl-1H-pyrrole-3-carboxylic acid ethyl ester] | 5.26
5 | CCOC(=O)c1cc(-c2ccccc2)n(-c2cccc(Cl)c2)c1C [Example 3, 1-(3-Chlorophenyl)-2-methyl-5-phenyl-1H-pyrrole-3-carboxylic acid ethyl ester] | 6.70
6 | CCOC(=O)c1cc(C)n(-c2cccc(C)c2)c1-c1ccccc1 [Example 4, 5-Methyl-2-phenyl-1-m-tolyl-1H-pyrrole-3-carboxylic acid ethyl ester] | 5.54
7 | CCOC(=O)c1cc(-c2ccccc2)n(-c2cccc(C)c2)c1C [Example 5, 2-Methyl-5-phenyl-l-m-tolyl-1H-pyrrole-3-carboxylic acid ethyl ester] | 5.21
8 | CCOC(=O)c1cc(C)n(-c2cccc(Br)c2)c1-c1ccccc1 [Example 6, 1-(3-Bromophenyl)-5-methyl-2-phenyl-1H-pyrrole-3-carboxylic acid ethyl ester] | 5.07
9 | CCOC(=O)c1cc(C)n(-c2cccc(C(C)=O)c2)c1-c1ccccc1 [Example 7, 1-(3-Acetylphenyl)-5-methyl-2-phenyl-1H-pyrrole-3-carboxylic acid ethyl ester] | 5.17
10 | CCOC(=O)c1cc(-c2ccccc2)n(-c2cccc(C(C)=O)c2)c1C [Example 8, 1-(3-Acetylphenyl)-2-methyl-5-phenyl-1H-pyrrole-3-carboxylic acid ethyl ester] | 6.23
11 | CCOC(=O)c1cc(C)n(-c2cccc(S(C)(=O)=O)c2)c1-c1ccccc1 [Example 9, 1-(3-Methanesulfonylphenyl)-5-methyl-2-phenyl-1H-pyrrole-3-carboxylic acid ethyl ester] | 5.34
12 | CCOC(=O)c1cc(-c2ccccc2)n(-c2cccc(S(C)(=O)=O)c2)c1C [Example 10, 1-(3-Methanesulfonylphenyl)-2-methyl-5-phenyl-1H-pyrrole-3-carboxylic acid ethyl ester] | 5.36
13 | CCOC(=O)c1cc(-c2ccccc2)n(-c2cccc(C(N)=O)c2)c1C [Example 11, 1-(3-Carbamoylphenyl)-2-methyl-5-phenyl-1H-pyrrole-3-carboxylic acid ethyl ester] | 5.26
14 | CCOC(=O)c1cc(C)n(-c2cccc(C(N)=O)c2)c1-c1ccccc1 [Example 12, 1-(3-Carbamoylphenyl)-5-methyl-2-phenyl-1H-pyrrole-3-carboxylic acid ethyl ester] | 6.66
15 | CCOC(=O)c1cc(C)n(-c2cccc(N(C)C)c2)c1-c1ccccc1 [Example 13, 1-(3-Dimethylaminophenyl)-5-methyl-2-phenyl-1H-pyrrole-3-carboxylic acid ethyl ester] | 6.82
16 | CCOC(=O)c1cc(C)n(-c2cccc(F)c2)c1-c1ccccc1 [Example 17, 1-(3-Fluorophenyl)-5-methyl-2-phenyl-1H-pyrrole-3-carboxylic acid ethyl ester] | 4.88
17 | CCOC(=O)c1cc(-c2ccccc2)n(-c2cccc(F)c2)c1C [Example 18, 1-(3-Fluorophenyl)-2-methyl-5-phenyl-1H-pyrrole-3-carboxylic acid ethyl ester] | 6.21
18 | CCOC(=O)c1cc(-c2ccccc2)n(-c2cccnc2)c1C [Example 19, 2-Methyl-5-phenyl-1-pyridin-3-yl-1H-pyrrole-3-carboxylic acid ethyl ester] | 5.89
19 | CCOC(=O)c1cc(-c2ccccc2)n(C2CCCCC2)c1C [Example 20, 1-Cyclohexyl-2-methyl-5-phenyl-1H-pyrrole-3-carboxylic acid ethyl ester] | 6.00

The next lines start with the values.

Row | pIC50 | SMILES
20 | 3.88 | CCOC(=O)c1cc(C)n(-c2ccc([N+](=O)[O-])cn2)c1-c1ccccc1 [Example 23, 5-Methyl-1-(5-nitropyridin-2-yl)-2-phenyl-1H-pyrrole-3-carboxylic acid ethyl ester]
21 | 4.78 | CCOC(=O)c1cc(C)n(-c2cccc(C(=O)O)c2)c1-c1ccccc1 [Example 24, 1-(3-Carboxyphenyl)-5-methyl-2-phenyl-1H-pyrrole-3-carboxylic acid ethyl ester]
22 | 5.51 | CCOC(=O)c1cc(-c2ccccc2)n(-c2cccc(Br)c2)c1C [Example 26, 1-(3-Bromophenyl)-2-methyl-5-phenyl-1H-pyrrole-3-carboxylic acid ethyl ester]
23 | 5.64 | CCOC(=O)c1cc(-c2ccccc2)n(-c2cccc(C(F)(F)F)c2)c1C [Example 28, 2-Methyl-5-phenyl-1-(3-trifluoro-methylphenyl)-1H-pyrrole-3-carboxylic acid ethyl ester]
24 | 5.17 | CCOC(=O)c1cc(C)n(-c2cccc(C(F)(F)F)c2)c1-c1ccccc1 [Example 29, 5-Methyl-2-phenyl-1-(3-trifluoro-methylphenyl)-1H-pyrrole-3-carboxylic acid ethyl ester]
25 | 4.87 | CCOC(=O)c1cc(-c2ccccc2)n(Cc2cccc([N+](=O)[O-])c2)c1C [Example 30, 2-Methyl-1-(3-nitrobenzyl)-5-phenyl-1H-pyrrole-3-carboxylic acid ethyl ester]
26 | 5.29 | CCOC(=O)c1cc(C)n(Cc2cccc([N+](=O)[O-])c2)c1-c1ccccc1 [Example 31, 5-Methyl-1-(3-nitrobenzyl)-2-phenyl-1H-pyrrole-3-carboxylic acid ethyl ester]
27 | 4.87 | CCOC(=O)c1cc(C)n(-c2cccnc2)c1-c1ccccc1 [Example 32, 5-Methyl-2-phenyl-1-pyridin-3-yl-1H-pyrrole-3-carboxylic acid ethyl ester]
28 | 5.85 | CCOC(=O)c1cc(-c2ccccc2)n(-c2ccc([N+](=O)[O-])cc2)c1C [Example 33, 2-Methyl-1-(4-nitrophenyl) -5-phenyl-1H-pyrrole-3-carboxylic acid ethyl ester]
29 | 5.78 | CCOC(=O)c1cc(-c2ccccc2)n(-c2ccccc2[N+](=O)[O-])c1C [Example 34, 2-Methyl-1-(2-nitrophenyl)-5-phenyl-1H-pyrrole-3-carboxylic acid ethyl ester]
30 | 5.24 | CCOC(=O)c1cc(-c2ccccc2)n(-c2ccc([N+](=O)[O-])cn2)c1C [Example 35, 2-Methyl-1-(5-nitropyridin-2-yl)-5-phenyl-1H-pyrrole-3-carboxylic acid ethyl ester]
31 | 3.96 | CCOC(=O)c1cc(C)n(-c2ccc([N+](=O)[O-])cc2)c1-c1ccccc1 [Example 36, 5-Methyl-1-(4-nitrophenyl)-2-phenyl-1H-pyrrole-3-carboxylic acid ethyl ester]
32 | 4.80 | CCOC(=O)c1cc(C)n(-c2ccc(N)cc2)c1-c1ccccc1 [Example 37, 1-(4-Aminophenyl)-5-methyl-2-phenyl-1H-pyrrole-3-carboxylic acid ethyl ester]
33 | 5.89 | CCOC(=O)c1cc(-c2ccccc2)n(-c2ccc(N)cc2)c1C [Example 38, 1-(4-Aminophenyl)-2-methyl-5-phenyl-1H-pyrrole-3-carboxylic acid ethyl ester]
34 | 6.70 | CCOC(=O)c1cc(C)n(-c2cccc([N+](=O)[O-])c2)c1-c1ccccc1 [Example 39, 1-(3-Nitrophenyl)-5-methyl-2-phenyl-1H-pyrrole-3-carboxylic acid ethyl ester]
35 | 5.85 | CCOC(=O)c1cc(-c2ccccc2)n(-c2cccc(N)c2)c1C [Example 41, 1-(3-Aminophenyl)-2-methyl-5-phenyl-1H-pyrrole-3-carboxylic acid ethyl ester]
36 | 4.81 | Cc1cc(C(=O)O)c(-c2ccccc2)n1-c1cccc([N+](=O)[O-])c1 [Example 43, 5-Methyl-1-(3-nitrophenyl)-2-phenyl-1H-pyrrole-3-carboxylic acid]
37 | 3.71 | CCOC(=O)c1cc(C)n(-c2cc(C(F)(F)F)cc(C(F)(F)F)c2)c1-c1ccccc1 [Example 45, 1-(3,5-Bis-trifluoromethylphenyl)-5-methyl-2-phenyl-1H-pyrrole-3-carboxylic acid ethyl ester]
38 | 5.06 | CCOC(=O)c1cccc(-n2c(C)cc(C(=O)OCC)c2-c2ccccc2)c1 [Example 46, 1-(3-Ethoxycarbonylphenyl)-5-methyl-2-phenyl-1H-pyrrole-3-carboxylic acid ethyl ester]
